Source: ChEMBL document CHEMBL3727361, “Nitrogen bicyclic compounds as inhibitors for Scyl1 and Grk5” (2014)

Test system: Beta-TC6
Assay: Increase in insulin release in mouse BetaTC6 cells assessed as relative insulin release activity at 10 uM incubated for 2 to 4 hrs by FRET based HTRF assay relative to sunitinib
Assay type: functional

Row | Structure (SMILES) | Activity
1 | OCc1cccc(-c2ccc3nnc(-c4ccccn4)n3c2)c1 | 20%
2 | COc1cc(OC)cc(-c2cn3c(-c4ccsc4)cnc3cn2)c1 | 20%
3 | O=C(O)CCc1ccc(-c2cnc3cnc(-c4cccc(Cl)c4)cn23)cc1 | 20%
4 | c1csc(-c2cn3c(-c4cccs4)cnc3cn2)c1 | 50%
5 | COc1ccc(-c2nnc3ccc(-c4ccc(S(C)(=O)=O)cc4)cn23)cc1OC | 10%
6 | COc1ccc(-c2ccc3nnc(-c4ccncc4)n3c2)cc1OC | 20%
7 | COc1cccc(-c2cn3c(-c4cccc(O)c4)cnc3cn2)c1F | 20%
8 | Clc1cccc(-c2cn3c(-c4ccc5c(c4)OCO5)cnc3cn2)c1 | 50%
9 | c1cncc(-c2cnc3cnc(-c4ccc(N5CCOCC5)cc4)cn23)c1 | 20%
10 | CN1CCN(C(=O)c2cccc(-c3cnc4cnc(-c5cccc(Cl)c5)cn34)c2)CC1 | 20%
11 | c1csc(-c2cnc3cnc(-c4ccsc4)cn23)c1 | 50%
12 | COc1cc(OC)cc(-c2cn3c(-c4cccc(N(C)C)c4)cnc3cn2)c1 | 20%
13 | CS(=O)(=O)Nc1cccc(-c2ccc3nnc(-c4ccccc4)n3c2)c1 | 50%
14 | c1cncc(-c2cnc3cnc(-c4cc5ccccc5s4)cn23)c1 | 20%
15 | NC(=O)c1ccc(-c2cnc3ccc(Cc4ccc(F)c(F)c4)nn23)cc1 | 20%
16 | c1cncc(-c2cnc3ccc(-c4ccoc4)nn23)c1 | 20%
17 | Cc1cccc(-c2cnc3cccnn23)c1 | 10%
18 | COc1ccccc1-c1ccc2ncc(-c3cccc(OC(F)(F)F)c3)n2n1 | 10%
19 | O=C(c1ccc(-c2ccc3nnc(-c4cccc(C(F)(F)F)c4)n3c2)cc1)N1CCOCC1 | 20%
20 | N#Cc1ccc(-c2cnc3cnc(-c4ccc(CO)cc4)cn23)cc1 | 20%
21 | CNC(=O)c1ccc(-c2ccc3nnc(-c4ccc(OCCCN(C)C)cc4)n3c2)cc1 | 20%
22 | Cn1ccc2cc(-c3cnc4cnc(-c5cccc(C(=O)NCCO)c5)cn34)ccc21 | 20%

Row | Structure (SMILES) | Activity
23 | COc1cccc(CC(=O)Nc2cnc3cnc(-c4ccc(Oc5ccccc5)cc4)cn23)c1 | 10%
24 | CC(=O)Nc1cccc(-c2cnc3ccc(-c4cccnc4)nn23)c1 | 10%
25 | CC(=O)c1cccc(-c2cnc3cnc(-c4ccc(C(=O)NCCN(C)C)cc4)cn23)c1 | 20%
26 | FC(F)(F)Oc1cccc(-c2ccc3nnc(-c4ccncc4)n3c2)c1 | 20%
27 | Clc1ccccc1-c1ccc2ncc(-c3cccs3)n2n1 | 10%
28 | CS(=O)(=O)c1cccc(-c2ccc3nnc(-c4ccccn4)n3c2)c1 | 20%
29 | Oc1cccc(-c2cnc3ccc(-c4ccc(F)cc4)nn23)c1 | 20%
30 | Cn1cc(-c2cn3c(-c4ccc(O)cc4)cnc3cn2)cn1 | 20%
31 | CN(C)C(=O)c1ccc(-c2cnc3cnc(-c4ccc5c(ccn5C)c4)cn23)cc1 | 20%
32 | COc1cccc(-c2cn3c(NC(=O)Cc4ccsc4)cnc3cn2)c1 | 20%
33 | COc1cc(-c2cnc3cnc(-c4ccc(N5CCN(C)CC5)nc4)cn23)cc(OC)c1OC | 20%
34 | Cc1ccccc1-c1cnc2cnc(-c3cccc(F)c3)cn12 | 10%
35 | Clc1cccc(-c2nnc3ccc(-c4cncnc4)cn23)c1 | 20%
36 | COc1ccc(-c2ccc3nnc(-c4ccoc4)n3c2)cc1 | 50%
37 | Cn1cc(-c2ccc3nnc(-c4ccc5c(c4)OCO5)n3c2)cn1 | 50%
38 | COc1ccc(-c2ccc3nnc(-c4ccc(OCCCN(C)C)cc4)n3c2)cc1OC | 50%
39 | Clc1ccc(-c2cnc3cnc(-c4ccsc4)cn23)cc1 | 50%
40 | Nc1cccc(-c2cn3c(NC(=O)Cc4ccc(F)c(F)c4)cnc3cn2)c1 | 10%
41 | Oc1cccc(-c2ccc3ncc(-c4cccc(C(F)(F)F)c4)n3n2)c1 | 20%
42 | c1csc(-c2cn3c(-c4ccc5c(c4)OCO5)cnc3cn2)c1 | 50%
43 | Fc1cccc(-c2cnc3cnc(-c4ccc5c(c4)OCO5)cn23)c1 | 20%
44 | Clc1cccc(-c2nnc3ccc(-c4cncc5ccccc45)cn23)c1 | 50%

Row | Structure (SMILES) | Activity
45 | Oc1cccc(-c2cnc3ccc(-c4cccc5ncccc45)nn23)c1 | 10%
46 | COc1cccc(CC(=O)Nc2cnc3cnc(-c4cnn(C)c4)cn23)c1 | 10%
47 | Clc1cccc(-c2ccc3nnc(-c4ccc5c(c4)OCO5)n3c2)c1 | 20%
48 | NC(=O)c1cccc(-c2ccc3nnc(-c4cscn4)n3c2)c1 | 20%
49 | COc1cc(C#Cc2ccc3nnc(-c4ccc(OCCCN(C)C)cc4)n3c2)cc(OC)c1 | 20%
50 | Nc1ccc(-c2cnc3ccc(Cc4ccccc4)nn23)cn1 | 20%
51 | CC(=O)c1cccc(-c2cn3c(NC(=O)CC4CC4)cnc3cn2)c1 | 20%
52 | CCOc1ccc(-c2cnc3cccnn23)cc1 | 10%
53 | OCc1ccc(-c2cnc3ccc(-c4cncnc4)nn23)cc1 | 10%
54 | c1cc2c(cc1CNc1ccc3ncc(-c4ccc(N5CCOCC5)cc4)n3n1)OCO2 | 20%
55 | COc1ccc(-c2cnc3cnc(-c4ccc(CO)cc4)cn23)cc1 | 50%
56 | O=C(O)CCc1ccc(-c2cnc3cnc(-c4cccs4)cn23)cc1 | 20%
57 | COc1cc(-c2cnc3cnc(-c4ccc(OCCCN(C)C)nc4)cn23)ccc1O | 20%
58 | Oc1cccc(-c2nnc3ccc(-c4ccc(F)cc4)cn23)c1 | 50%
59 | CN(C)c1ccc(-c2cnc3cnc(-c4ccc(NCCN5CCOCC5)nc4)cn23)cc1 | 50%
60 | c1ccc(-c2cnc3cnc(-c4ccsc4)cn23)cc1 | 20%
61 | FC(F)(F)c1cccc(-c2cnc3ccc(-c4ccncc4)nn23)c1 | 20%
62 | O=C(NCCO)c1ccc(-c2cn3c(-c4ccsc4)cnc3cn2)cc1 | 10%
63 | CS(=O)(=O)Nc1cccc(-c2cn3c(-c4ccc5ncccc5c4)cnc3cn2)c1 | 20%
64 | Nc1ccc(-c2cn3c(-c4cccs4)cnc3cn2)cn1 | 20%
65 | COc1ccc(-c2cnc3cnc(-c4cccs4)cn23)cc1 | 20%
66 | c1ccc(-c2cn3c(-c4ccc5c(c4)OCO5)cnc3cn2)cc1 | 50%

Row | Structure (SMILES) | Activity
67 | OCc1ccc(-c2ccc3nnc(-c4ccncc4)n3c2)cc1 | 20%
68 | CN(C)C(=O)c1ccc(-c2cnc3cnc(-c4ccccc4Oc4ccccc4)cn23)cc1 | 20%
69 | COc1ccc(-c2ccc3nnc(-c4ccc(O)c(OC)c4)n3c2)cn1 | 50%
70 | O=C(O)CCc1ccc(-c2cnc3cnc(-c4ccccc4Cl)cn23)cc1 | 50%
71 | COc1cc(-c2cnc3cnc(-c4ccc(NCCN5CCOCC5)nc4)cn23)ccc1O | 20%
72 | CC(=O)Nc1ccc(-c2cnc3ccc(-c4ccc(S(C)(=O)=O)cc4)nn23)cc1 | 10%
73 | N#Cc1ccc(-c2cnc3cnc(-c4ccccc4)cn23)cc1 | 20%
74 | CC(=O)Nc1ccc(-c2cnc3ccc(-c4ccc5c(c4)OCO5)nn23)cc1 | >=100%
75 | COc1cc(-c2cn3c(-c4ccccc4Cl)cnc3cn2)ccc1O | 20%
76 | CN(C)CCCOc1ccc(-c2cn3c(-c4cccc(N(C)C)c4)cnc3cn2)cn1 | 20%
77 | Fc1cccc(-c2ccc3ncc(-c4ccc5c(c4)OCO5)n3n2)c1 | 20%
78 | Fc1ccc(-c2ccc3nnc(-c4cscn4)n3c2)cc1Cl | 20%
79 | O=C(Cc1ccsc1)Nc1cnc2cnc(-c3ccccc3F)cn12 | 10%
80 | O=C(O)CCc1ccc(-c2cnc3cnc(-c4ccccc4CO)cn23)cc1 | 20%
81 | CN(C)CC#Cc1ccc2nnc(-c3ccccc3)n2c1 | 10%
82 | CN(C)CCCOc1ccc(-c2cn3c(-c4ccc(N(C)C)cc4)cnc3cn2)cn1 | 50%
83 | Nc1ccc(-c2ccc3nnc(-c4cccc(C(F)(F)F)c4)n3c2)cn1 | 20%
84 | O=C(NCCO)c1ccc(-c2cnc3cccnn23)cc1 | 10%
85 | COc1ccc(-c2cnc3ccc(NCCCO)nn23)cc1 | 10%
86 | CC(C(=O)Nc1cnc2cnc(-c3cccc([N+](=O)[O-])c3)cn12)c1ccccc1 (centres undefined) | 20%
87 | CN(C)CCCOc1ccc(-c2nnc3ccc(-c4ccc(Cl)cc4)cn23)cc1 | 20%
88 | CN(C)c1cccc(-c2cnc3cnc(-c4cccs4)cn23)c1 | 20%

Row | Structure (SMILES) | Activity
89 | c1csc(-c2cnc3cnc(-c4ccncc4)cn23)c1 | 20%
90 | CNc1ccc2ncc(-c3cccc(C(=O)N(C)C)c3)n2n1 | 20%
91 | N#Cc1ccc(-c2cnc3cnc(-c4ccsc4)cn23)cc1 | 20%
92 | Clc1cccc(-c2nnc3ccc(-c4ccc5c(c4)OCO5)cn23)c1 | 50%
93 | CN(C)c1ccc(-c2ccc3ncc(-c4ccc(CO)cc4)n3n2)cc1 | 50%
94 | OC1CCC(Nc2ccc3ncc(Br)n3n2)CC1 (centres undefined) | 10%
95 | NC(=O)c1ccc(-c2ccc3ncc(-c4cccc(OC(F)(F)F)c4)n3n2)cc1 | 20%
96 | c1csc(-c2cn3c(-c4ccncc4)cnc3cn2)c1 | 20%
97 | COCCNc1ccc2ncc(-c3ccc(C(=O)Nc4ccc(OC)cc4)cc3)n2n1 | 20%
98 | c1cnc2cc(-c3nnc4ccc(-c5ccoc5)cn34)ccc2n1 | 50%
99 | Oc1cccc(-c2cnc3cnc(-c4cccc(Cl)c4)cn23)c1 | 20%
100 | CN1CCN(C(=O)c2cccc(-c3cnc4cnc(-c5ccc(CNc6ccccc6)cc5)cn34)c2)CC1 | 10%
101 | COc1ccc(-c2ccc3ncc(-c4cccc(Cl)c4)n3n2)c(C)c1 | 10%
102 | Nc1ccc(-c2cn3c(NC(=O)c4ccccc4)cnc3cn2)cc1 | 20%
103 | COc1cccc(C#Cc2ccc3nnc(-c4cccc(OC(F)(F)F)c4)n3c2)c1 | 20%
104 | FC(F)(F)Oc1cccc(-c2nnc3ccc(-c4cccs4)cn23)c1 | 50%
105 | COc1cccc(-c2ccc3nnc(-c4cscn4)n3c2)c1 | 50%
106 | FC(F)(F)Oc1ccc(-c2cn3c(-c4cccs4)cnc3cn2)cc1 | 20%
107 | COc1cccc(CC(=O)Nc2cnc3cnc(-c4cccs4)cn23)c1 | 20%
108 | CC(C)Oc1cccc(-c2cn3c(-c4cccs4)cnc3cn2)c1 | 20%
109 | Nc1ccc(-c2cn3c(-c4ccc5c(c4)OCO5)cnc3cn2)cn1 | 10%
